{
  "source": "patent US7713963B2",
  "about": "“Acylated indanyl amines and their use as pharmaceuticals” (sanofi-aventis Deutschland GmbH, priority 2001, dated 2010)",
  "key": {"eNOS promoter": {"tested_on": "eNOS promoter", "experiment": "Activation of eNOS transcription (eNOS promoter-luciferase reporter gene assay)", "type": "cell-based, human", "conditions": "Homo sapiens, 18 h, 18 h incubation; for maximal fold induction: maximum transcription induction ratio (luciferase with compound / solvent alone), read-out: TIR (max); for EC50: Endothelial cell, EC50 of transcription induction ratio, determined graphically, human endothelial cell line, read-out: EC-50", "how_it_was_run": "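Human endothelial cell line stably expressing firefly luciferase under a 3.5 kB eNOS promoter fragment, treated 18 h with compounds (0.5% DMSO final). Luciferase induction relative to solvent gives transcription induction ratio; EC50 read graphically from ratio versus concentration.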"}, "ApoE deficient mice [1]": {"tested_on": "ApoE deficient mice", "experiment": "Inhibition of neointima formation and atherogenesis (femoral artery cuff) in ApoE deficient mice", "type": "in vivo", "conditions": "10 mg/kg/d in chow, 3 days before to 14 days after cuff surgery, versus placebo", "from_the_text": "(§1) Animals and Treatment (Experiments A-C)\n(§2) ApoE and eNOS deficient mice (C57BL/6J background, Jackson Laboratory, Bar Harbor, Me.) were used. All animals were 10-12 weeks of age and weighed 22 to 28 g. Three days before surgery mice were divided into 4 groups (apoE control, n=10-12; apoE with test compounds, n=10-12; eNOS control, n=10-12; eNOS with test compounds, n=10-12) and received either a standard rodent chow (containing 4% fat and 0.001% cholesterol; in the following designated as placebo group) or a standard rodent chow+test compound (10 or 30 mg/kg/d p.o.).\nB Inhibition of Neointima Formation and Atherogenesis (Femoral Artery Cuff)\nAfter 3 day treatment of ApoE deficient mice with the respective compound, (10 mg/kg/d pressed in chow), animals were anesthetized with an intraperitoneal injection of pentobarbital (60 mg/kg) followed by an intramuscular injection of xylazin (2 mg/kg) and a cuff was placed around the femoral artery as described in Moroi et al. (J. Clin. Invest. 101: 1225-32, 1998). Briefly, the left femoral artery was dissected. […] The aorta were taken for determination of vascular eNOS expressions by quantitative western blotting. […] For each cross section the area of the lumen, the neointima and the media were determined. […] The ratio between the area of the neointima and the area of the media was expressed as the neointima/media ratio."}, "vascular eNOS expression [2]": {"tested_on": "vascular eNOS expression", "experiment": "Vascular eNOS expression (femoral arteries) after chronic treatment", "type": "in vivo", "conditions": "ApoE deficient mice, 16 weeks treatment", "description": "ApoE deficient mice were treated for 16 weeks with the respective compound pressed in chow and finally sacrificed. Aortas were removed from each mouse, fixed in formalin and embedded in paraffin. Plaque formation was measured via lipid lesion formation in the aortas (from aortic arch to diaphragm) and was analyzed by oil red O staining. For quantifying the effect of the respective compound on vascular eNOS expression the femoral arteries were used in this experiment."}, "ApoE deficient mice [3]": {"tested_on": "ApoE deficient mice", "experiment": "Anti-hypertensive effect in ApoE knockout mice (tail-cuff blood pressure)", "type": "in vivo", "conditions": "30 mg/kg/d, 4 months treatment, placebo 115±2 mmHg, p<0.05", "from_the_text": "as §1, §2\nA Anti-Hypertensive Effect in ApoE Knockout Mice\n(§3) Blood-pressure was determined in conscious mice using a computerized tail-cuff system (Visitech Systems, Apex, Nc). After treatment of ApoE deficient mice and eNOS deficient mice with the test compounds the blood pressure was compared to the results obtained with a placebo treatment."}, "ApoE deficient mice [4]": {"tested_on": "ApoE deficient mice", "experiment": "Improvement of coronary function in diseased ApoE deficient mice (isolated working heart)", "type": "in vivo", "conditions": "isolated hearts of ApoE deficient mice, 30 mg/kg/d p.o. for 8 weeks", "from_the_text": "D Improvement of Coronary Function in Diseased ApoE Deficient Mice\nOld Male wild-type C57BL/6J mice (Charles River Wiga GmbH, Sulzfeld), and apoE deficient mice (C57BL/6J background, Jackson Laboratory, Bar Harbor, Me.) 6 month of age and weighing 28 to 36 g were used in the experiments. Mice were divided into 3 groups (C57BL/6, n=8; apoE control, n=8; apoE with respective compound, n=8) and received for 8 weeks either a standard rodent chow (containing 4% fat and 0.001% cholesterol) or a standard rodent chow+respective compound (30 mg/kg/d p.o.).\nMice were anesthetized with sodium pentobarbitone (100 mg/kg i.p.), and the hearts were rapidly excised and placed into ice-cold perfusion buffer. The aorta was cannulated and connected to a perfusion apparatus (HUGO SACHS ELECTRONICS, Freiburg, Germany) which was started immediately at a constant perfusion pressure of 60 mm Hg. Hearts were perfused in a retrograde fashion with modified Krebs bicarbonate buffer, equilibrated with 95% O2 and 5% CO2 and maintained at 37.5° C.\nA beveled small tube (PE 50) was passed through a pulmonary vein into the left ventricle and pulled through the ventricular wall, anchored in the apex by a fluted end, and connected to a tip-micromanometer (Millar 1.4 French). The left atrium was cannulated through the same pulmonary vein and the heart switched to the working mode with a constant preload pressure of 10 mm Hg and an afterload pressure of 60 mm Hg. Aortic outflow and atrial inflow were continuously measured using ultrasonic flow probes (HSE/Transonic Systems Inc.). Coronary flow was calculated as the difference between atrial flow and aortic flow. All hemodynamic data were digitized at a sampling rate of 1000 Hz and recorded with a PC using specialized software (HEM, Notocord).\nHearts were allowed to stabilize for 30 min. All functional hemodynamic data were measured during steady state, and during volume- and pressure loading.\nLeft ventricular function curves were constructed by varying pre-load pressure. […]"}, "vascular eNOS expression [5]": {"tested_on": "vascular eNOS expression", "experiment": "Vascular eNOS expression (aorta, quantitative western blotting) in femoral artery cuff model", "type": "in vivo", "conditions": "ApoE deficient mice, 10 mg/kg/d, versus placebo", "description": "After 3 day treatment of ApoE deficient mice with the respective compound, (10 mg/kg/d pressed in chow), animals were anesthetized with an intraperitoneal injection of pentobarbital (60 mg/kg) followed by an intramuscular injection of xylazin (2 mg/kg) and a cuff was placed around the femoral artery as described in Moroi et al. (J. Clin. Invest. 101: 1225-32, 1998). Briefly, the left femoral artery was dissected. A non-occlusive 2.0 mm polyethylene cuff made of PE-50 tubing (inner diameter 0.56 mm, outer diameter 0.965 mm, Becton Dickinson, Mountain View, Calif.) was placed around the artery and tied in place with two 7-0 sutures. The right femoral artery was isolated from the surrounding tissues but a cuff was not placed. Treatment with the respective compound was continued for 14 days after surgery. Then the animals were sacrificed. The aorta were taken for determination of vascular eNOS expressions by quantitative western blotting. Both femoral arteries were harvested, fixed in formalin and embedded in paraffin. 20 cross sections (10 μm) were cut from the cuffed portion of the left femoral artery and from the corresponding segment of the right artery. […] For each cross section the area of the lumen, the neointima and the media were determined. […] The ratio between the area of the neointima and the area of the media was expressed as the neointima/media ratio."}, "eNOS deficient mice": {"tested_on": "eNOS deficient mice", "experiment": "Blood pressure in eNOS deficient mice (tail-cuff)", "type": "in vivo", "conditions": "similar dosing, 4 weeks treatment", "from_the_text": "as §1, §2, §3"}},
  "data": [
    {"smiles": "O=C(NC1Cc2ccccc2C1)c1ccc2c(c1)OC(F)(F)O2", "note": "[Compound 66, 2,2-DIFLUORO-BENZO[1,3]DIOXOL-5-CARBOXYLIC ACID INDAN-2-YLAMIDE]", "values": [
      {"measurement": "melting point", "value": 147.5, "unit": "°C"},
      {"measurement": "maximal fold induction", "setting": "eNOS promoter", "value": 2.7},
      {"measurement": "EC50", "setting": "eNOS promoter", "value": 0.14, "unit": "µM"}
    ]},
    {"smiles": "O=C(NC1Cc2cccc(-c3ccc(F)cc3)c2C1)c1ccc(F)cc1", "note": "(stereo not shown) [Compound 398B, 4-FLUORO-N-[4-(4-FLUOROPHENYL)-INDAN-2-YL]-BENZAMIDE]", "values": [
      {"measurement": "melting point", "value": 157, "unit": "°C"},
      {"measurement": "maximal fold induction", "setting": "eNOS promoter", "value": 3.46},
      {"measurement": "EC50", "setting": "eNOS promoter", "value": 30, "unit": "µM"}
    ]},
    {"smiles": "O=C(NC1Cc2ccccc2C1)c1ccc(F)cc1", "note": "[Compound 21, 4-FLUORO-N-(INDAN-2-YL)-BENZAMIDE]", "values": [
      {"measurement": "reduction of neo-intima formation (factor)", "setting": "ApoE deficient mice [1]", "value": 2},
      {"measurement": "vascular eNOS expression up-regulation", "setting": "vascular eNOS expression [2]", "value": 1.75, "unit": "fold"},
      {"measurement": "blood pressure", "setting": "ApoE deficient mice [3]", "value": "92±5", "unit": "mmHg"},
      {"measurement": "maximal fold induction", "setting": "eNOS promoter", "value": 4.1},
      {"measurement": "EC50", "setting": "eNOS promoter", "value": 0.8, "unit": "µM"},
      {"measurement": "pre-load dependent coronary flow", "setting": "ApoE deficient mice [4]", "value": "improvement"},
      {"measurement": "incidence of ventricular arrhythmias", "setting": "ApoE deficient mice [4]; indicator for anti-ischemic efficacy", "value": "reduction"},
      {"measurement": "coronary flow", "setting": "ApoE deficient mice [4]; untreated ApoE 3.6, wildtype 4.95 ml/min", "value": 5, "unit": "mL/min"},
      {"measurement": "vascular eNOS expression enhanced by a factor", "setting": "vascular eNOS expression [5]", "value": 2.1},
      {"measurement": "blood pressure reduction", "setting": "eNOS deficient mice", "value": "No blood pressure reduction"}
    ]},
    {"smiles": "O=C(NC1Cc2ccc(O)cc2C1)c1ccc(F)cc1", "note": "(stereo not shown) [Compound 404, 4-FLUORO-N-(5-HYDROXY-INDAN-2-YL)-BENZAMIDE]", "values": [
      {"measurement": "melting point", "value": 199, "unit": "°C"},
      {"measurement": "maximal fold induction", "setting": "eNOS promoter", "value": 3.5},
      {"measurement": "EC50", "setting": "eNOS promoter", "value": 12, "unit": "µM"}
    ]}
  ]
}
